Measurements reported in patent US11236102B2, “Oxabicycloheptane prodrugs” (Lixte Biotechnology, Inc., priority 2015, dated 2022).
Where “and” joins values, the source holds several entries; their conditions need not be identical. Equal values may be shown once. Read-outs that look alike come from different tables or passages of the source.

Assay: Pharmacokinetic study of 151 (iv, oral) in SD rats: 151 and 100 in plasma
Format: in vivo
Details: for AUC(0-t): read-out: AUC0-t of 151; for AUC(0-inf): read-out: AUC0-∞ of 151
Method: The absolute bioavailability was evaluated.
To each sample, 160 μL of acetonitrile were added.
The mass spectrometer was operated in the positive mode.
Quantification was achieved by the external standard method.
Calibration Curve for Plasma Samples
LB100 concentrations of the LB151 plasma samples were also measured and pharmacokinetic parameters were calculated.

[1] = 151 IV 1.0 mg/kg, SD rats, individual rats, 1 mg/kg
[2] = male, Sprague-Dawley, rat, in vivo, iv, 1 mg/kg, plasma, 151 IV 1.0 mg/kg, SD rats, individual rats
[3] = male, Sprague-Dawley, rat, in vivo, iv, 1 mg/kg, plasma, 151 IV 1.0 mg/kg, SD rats, mean
[4] = male, Sprague-Dawley, rat, in vivo, po, 10 mg/kg, plasma, 151 PO 10 mg/kg, SD rats, individual rats
[5] = male, Sprague-Dawley, rat, in vivo, po, 10 mg/kg, plasma, 151 PO 10 mg/kg, SD rats, mean
[6] = plasma, 151 IV 1.0 mg/kg, SD rats, individual rats, 1 mg/kg
[7] = plasma, 151 PO 10 mg/kg, SD rats, individual rats, 10 mg/kg

Structure (SMILES): COC(=O)C1C2CCC(O2)C1C(=O)N1CCN(C)CC1 (stereo not shown) [Compound 151]
- 151 plasma concentration (151 IV 1.0 mg/kg, SD rats, 0.083 h, individual rats, 1 mg/kg): 1301 ng/mL
- 151 plasma concentration (151 IV 1.0 mg/kg, SD rats, 0.250 h, individual rats, 1 mg/kg): 949 ng/mL
- 151 plasma concentration (151 IV 1.0 mg/kg, SD rats, 0.50 h, individual rats, 1 mg/kg): 607 ng/mL
- 151 plasma concentration (151 IV 1.0 mg/kg, SD rats, 1.0 h, individual rats, 1 mg/kg): 314 ng/mL
- 151 plasma concentration (151 IV 1.0 mg/kg, SD rats, 2.0 h, individual rats, 1 mg/kg): 103 ng/mL
- 151 plasma concentration (151 IV 1.0 mg/kg, SD rats, 3.0 h, individual rats, 1 mg/kg): 28.1 ng/mL
- 151 plasma concentration (151 IV 1.0 mg/kg, SD rats, 5.0 h, individual rats, 1 mg/kg): 9.75 ng/mL and 3.63 ng/mL
- 151 plasma concentration (151 IV 1.0 mg/kg, SD rats, 7.0 h, individual rats, 1 mg/kg): 12.2 ng/mL and 1.83 ng/mL
- 151 plasma concentration (151 IV 1.0 mg/kg, SD rats, 9.0 h, individual rats, 1 mg/kg): BLQ
- 151 plasma concentration (151 IV 1.0 mg/kg, SD rats, 24 h, individual rats): BLQ
- CL of 151 [1]: 955 mL/h/kg
- Vss of 151 [1]: 775 mL/kg
- F of 151 (151 PO 10 mg/kg vs IV 1.0 mg/kg, SD rats, mean, based on AUC0-∞): 54.6%
- 151 plasma concentration (151 PO 10 mg/kg, SD rats, 0.25 h, individual rats, 10 mg/kg): 2029 ng/mL and 2731 ng/mL
- 151 plasma concentration (151 PO 10 mg/kg, SD rats, 0.50 h, individual rats, 10 mg/kg): 3934 ng/mL and 3343 ng/mL
- 151 plasma concentration (151 PO 10 mg/kg, SD rats, 1.0 h, individual rats, 10 mg/kg): 2581 ng/mL and 2538 ng/mL
- 151 plasma concentration (151 PO 10 mg/kg, SD rats, 2.0 h, individual rats, 10 mg/kg): 1237 ng/mL and 1582 ng/mL
- 151 plasma concentration (151 PO 10 mg/kg, SD rats, 3.0 h, individual rats, 10 mg/kg): 660 ng/mL and 794 ng/mL
- 151 plasma concentration (151 PO 10 mg/kg, SD rats, 5.0 h, individual rats, 10 mg/kg): 99.4 ng/mL and 192 ng/mL
- 151 plasma concentration (151 PO 10 mg/kg, SD rats, 7.0 h, individual rats, 10 mg/kg): 42.6 ng/mL and 20.7 ng/mL and 68.0 ng/mL
- 151 plasma concentration (151 PO 10 mg/kg, SD rats, 9.0 h, individual rats, 10 mg/kg): 38.2 ng/mL and 66.1 ng/mL
- 151 plasma concentration (151 PO 10 mg/kg, SD rats, 24 h, individual rats): BLQ
- time of peak plasma concentration (151 oral 10 mg/kg, SD rats (n=3)): 0.5 h
- concentration at 0.083 h (male, Sprague-Dawley, rat, in vivo, iv, 1 mg/kg, 151 IV 1.0 mg/kg, SD rats, 0.083 h, individual rats): 1680 ng/mL
- concentration at 0.083 h (male, Sprague-Dawley, rat, in vivo, iv, 1 mg/kg, 151 IV 1.0 mg/kg, SD rats, 0.083 h, mean): 1490 ng/mL
- concentration at 0.25 h (male, Sprague-Dawley, rat, in vivo, iv, 1 mg/kg, 151 IV 1.0 mg/kg, SD rats, 0.250 h, individual rats): 1160 ng/mL
- concentration at 0.25 h (male, Sprague-Dawley, rat, in vivo, iv, 1 mg/kg, 151 IV 1.0 mg/kg, SD rats, 0.250 h, mean): 1060 ng/mL
- concentration at 0.5 h (male, Sprague-Dawley, rat, in vivo, iv, 1 mg/kg, 151 IV 1.0 mg/kg, SD rats, 0.50 h, individual rats): 760 ng/mL
- concentration at 0.5 h (male, Sprague-Dawley, rat, in vivo, iv, 1 mg/kg, 151 IV 1.0 mg/kg, SD rats, 0.50 h, mean): 683 ng/mL
- concentration at 1 h (male, Sprague-Dawley, rat, in vivo, iv, 1 mg/kg, 151 IV 1.0 mg/kg, SD rats, 1.0 h, individual rats): 381 ng/mL
- concentration at 1 h (male, Sprague-Dawley, rat, in vivo, iv, 1 mg/kg, 151 IV 1.0 mg/kg, SD rats, 1.0 h, mean): 348 ng/mL
- concentration at 2 h (male, Sprague-Dawley, rat, in vivo, iv, 1 mg/kg, 151 IV 1.0 mg/kg, SD rats, 2.0 h, individual rats): 95.8 ng/mL
- concentration at 2 h (male, Sprague-Dawley, rat, in vivo, iv, 1 mg/kg, 151 IV 1.0 mg/kg, SD rats, 2.0 h, mean): 99.6 ng/mL
- concentration at 3 h (male, Sprague-Dawley, rat, in vivo, iv, 1 mg/kg, 151 IV 1.0 mg/kg, SD rats, 3.0 h, individual rats): 39.6 ng/mL
- concentration at 3 h (male, Sprague-Dawley, rat, in vivo, iv, 1 mg/kg, 151 IV 1.0 mg/kg, SD rats, 3.0 h, mean): 33.8 ng/mL
- concentration at 5 h (male, Sprague-Dawley, rat, in vivo, iv, 1 mg/kg, 151 IV 1.0 mg/kg, SD rats, 5.0 h, mean): 6.69 ng/mL
- concentration at 7 h (male, Sprague-Dawley, rat, in vivo, iv, 1 mg/kg, 151 IV 1.0 mg/kg, SD rats, 7.0 h, mean): 7.02 ng/mL
- concentration at 9 h (male, Sprague-Dawley, rat, in vivo, iv, 1 mg/kg, 151 IV 1.0 mg/kg, SD rats, 9.0 h, individual rats): 2.01 ng/mL
- concentration at 9 h (male, Sprague-Dawley, rat, in vivo, iv, 1 mg/kg, 151 IV 1.0 mg/kg, SD rats, 9.0 h, mean): 1 ng/mL
- clearance (male, Sprague-Dawley, rat, in vivo, iv, 1 mg/kg, 151 IV 1.0 mg/kg, SD rats, individual rats, read-out: CL of 151 (converted)): 12.7 mL/min/kg
- Vd (male, Sprague-Dawley, rat, in vivo, iv, 1 mg/kg, 151 IV 1.0 mg/kg, SD rats, individual rats, read-out: Vss of 151): 0.696 L/kg
- clearance (male, Sprague-Dawley, rat, in vivo, iv, 1 mg/kg, 151 IV 1.0 mg/kg, SD rats, mean, read-out: CL of 151 (converted)): 14.3 mL/min/kg
- Vd (male, Sprague-Dawley, rat, in vivo, iv, 1 mg/kg, 151 IV 1.0 mg/kg, SD rats, mean, read-out: Vss of 151): 0.736 L/kg
- half-life (male, Sprague-Dawley, rat, in vivo, iv, 1 mg/kg, 151 iv 1.0 mg/kg (n=2), read-out: elimination half-life (converted)): 53.4 min
- clearance (male, Sprague-Dawley, rat, in vivo, iv, 1 mg/kg, 151 iv 1.0 mg/kg (n=2), read-out: mean clearance from rat plasma (converted)): 14.3 mL/min/kg
- Vd (male, Sprague-Dawley, rat, in vivo, iv, 1 mg/kg, 151 iv 1.0 mg/kg (n=2), read-out: volume of distribution at steady state): 0.736 L/kg
- MRT [2]: 0.91 h
- AUC(0-t) [2]: 1290 ng·h/mL
- AUC(0-inf) [2]: 1310 ng·h/mL
- half-life (male, Sprague-Dawley, rat, in vivo, iv, 1 mg/kg, plasma, 151 IV 1.0 mg/kg, SD rats, individual rats, read-out: T1/2 of 151 (converted)): 54.6 min
- MRT [3]: 0.86 h
- AUC(0-t) [3]: 1170 ng·h/mL
- AUC(0-inf) [3]: 1180 ng·h/mL
- half-life (male, Sprague-Dawley, rat, in vivo, iv, 1 mg/kg, plasma, 151 IV 1.0 mg/kg, SD rats, mean, read-out: T1/2 of 151 (converted)): 53.4 min
- concentration at 0.25 h (male, Sprague-Dawley, rat, in vivo, po, 10 mg/kg, 151 PO 10 mg/kg, SD rats, 0.25 h, individual rats): 2230 ng/mL
- concentration at 0.25 h (male, Sprague-Dawley, rat, in vivo, po, 10 mg/kg, 151 PO 10 mg/kg, SD rats, 0.25 h, mean): 2330 ng/mL
- concentration at 0.5 h (male, Sprague-Dawley, rat, in vivo, po, 10 mg/kg, 151 PO 10 mg/kg, SD rats, 0.50 h, individual rats): 2450 ng/mL
- concentration at 0.5 h (male, Sprague-Dawley, rat, in vivo, po, 10 mg/kg, 151 PO 10 mg/kg, SD rats, 0.50 h, mean): 3240 ng/mL
- concentration at 1 h (male, Sprague-Dawley, rat, in vivo, po, 10 mg/kg, 151 PO 10 mg/kg, SD rats, 1.0 h, individual rats): 2200 ng/mL
- concentration at 1 h (male, Sprague-Dawley, rat, in vivo, po, 10 mg/kg, 151 PO 10 mg/kg, SD rats, 1.0 h, mean): 2440 ng/mL
- concentration at 2 h (male, Sprague-Dawley, rat, in vivo, po, 10 mg/kg, 151 PO 10 mg/kg, SD rats, 2.0 h, individual rats): 1100 ng/mL
- concentration at 2 h (male, Sprague-Dawley, rat, in vivo, po, 10 mg/kg, 151 PO 10 mg/kg, SD rats, 2.0 h, mean): 1310 ng/mL
- concentration at 3 h (male, Sprague-Dawley, rat, in vivo, po, 10 mg/kg, 151 PO 10 mg/kg, SD rats, 3.0 h, individual rats): 521 ng/mL
- concentration at 3 h (male, Sprague-Dawley, rat, in vivo, po, 10 mg/kg, 151 PO 10 mg/kg, SD rats, 3.0 h, mean): 658 ng/mL
- concentration at 5 h (male, Sprague-Dawley, rat, in vivo, po, 10 mg/kg, 151 PO 10 mg/kg, SD rats, 5.0 h, individual rats): 125 ng/mL
- concentration at 5 h (male, Sprague-Dawley, rat, in vivo, po, 10 mg/kg, 151 PO 10 mg/kg, SD rats, 5.0 h, mean): 139 ng/mL
- concentration at 7 h (male, Sprague-Dawley, rat, in vivo, po, 10 mg/kg, 151 PO 10 mg/kg, SD rats, 7.0 h, mean): 43.8 ng/mL
- concentration at 9 h (male, Sprague-Dawley, rat, in vivo, po, 10 mg/kg, 151 PO 10 mg/kg, SD rats, 9.0 h, individual rats): 52.1 ng/mL
- concentration at 9 h (male, Sprague-Dawley, rat, in vivo, po, 10 mg/kg, 151 PO 10 mg/kg, SD rats, 9.0 h, mean): 52.1 ng/mL
- half-life (male, Sprague-Dawley, rat, in vivo, po, 10 mg/kg, 151 oral 10 mg/kg, SD rats (n=3), read-out: mean half-life (converted)): 75.6 min
- Cmax [4]: 2450 ng/mL
- MRT [4]: 1.86 h
- AUC(0-t) [4]: 5400 ng·h/mL
- AUC(0-inf) [4]: 5500 ng·h/mL
- half-life (male, Sprague-Dawley, rat, in vivo, po, 10 mg/kg, plasma, 151 PO 10 mg/kg, SD rats, individual rats, read-out: T1/2 of 151 (converted)): 79.8 min
- Cmax [5]: 3240 ng/mL
- MRT [5]: 1.81 h
- AUC(0-t) [5]: 6340 ng·h/mL
- AUC(0-inf) [5]: 6440 ng·h/mL
- half-life (male, Sprague-Dawley, rat, in vivo, po, 10 mg/kg, plasma, 151 PO 10 mg/kg, SD rats, mean, read-out: T1/2 of 151 (converted)): 75.6 min
- bioavailability (male, Sprague-Dawley, rat, in vivo, 151 oral 10 mg/kg, based on AUC0-∞, read-out: absolute bioavailability (F)): 54.6%
- Tmax (male, Sprague-Dawley, rat, in vivo, plasma, 151 PO 10 mg/kg, SD rats, mean): 30 min
- AUC0-t of 151 [6]: 1045 ng·h/mL
- AUC0-∞ of 151 [6]: 1047 ng·h/mL
- MRT of 151 [6]: 0.81 h
- T1/2 of 151 [6]: 0.87 h
- AUC0-t of 151 [7]: 6423 ng·h/mL and 7199 ng·h/mL
- AUC0-∞ of 151 [7]: 6484 ng·h/mL and 7328 ng·h/mL
- Cmax of 151 [7]: 3934 ng/mL and 3343 ng/mL
- MRT of 151 [7]: 1.62 h and 1.95 h
- T1/2 of 151 [7]: 1.10 h and 1.35 h
